Literature values in patent publication US9328120B2, “6-cycloalkyl-pyrazolopyrimidinones for the treatment of CNS disorders” (Boehringer Ingelheim International GmbH, priority 2010, dated 2016).

Legend:
[1] = target: Murine PDE9A (Mus musculus (Mouse), UniProt O70628); conditions: concentrations below 200 micromolar
[2] = target: human PDE9A (Homo sapiens (Human), UniProt O76083); conditions: for inhibition on the isolated enzyme: concentrations of up to 100 micromolar (μM)
Sequence of human PDE9A (O76083 whole entry): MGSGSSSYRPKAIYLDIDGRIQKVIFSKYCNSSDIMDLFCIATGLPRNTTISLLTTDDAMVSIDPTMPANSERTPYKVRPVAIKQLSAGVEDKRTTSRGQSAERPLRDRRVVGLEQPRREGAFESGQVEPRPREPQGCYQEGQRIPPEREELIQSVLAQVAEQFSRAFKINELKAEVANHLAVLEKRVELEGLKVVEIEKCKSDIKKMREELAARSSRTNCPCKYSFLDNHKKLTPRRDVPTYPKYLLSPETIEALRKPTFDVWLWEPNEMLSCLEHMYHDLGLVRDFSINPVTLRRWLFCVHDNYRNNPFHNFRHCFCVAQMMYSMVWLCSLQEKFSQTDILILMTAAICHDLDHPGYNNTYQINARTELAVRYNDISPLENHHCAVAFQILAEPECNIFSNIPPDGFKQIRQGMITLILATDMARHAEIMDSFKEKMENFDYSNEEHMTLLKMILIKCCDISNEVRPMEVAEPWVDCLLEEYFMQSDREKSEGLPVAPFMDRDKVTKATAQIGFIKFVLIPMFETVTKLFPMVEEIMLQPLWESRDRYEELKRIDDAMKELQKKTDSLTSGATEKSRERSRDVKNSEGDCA

Sequence of Murine PDE9A (O70628 whole entry): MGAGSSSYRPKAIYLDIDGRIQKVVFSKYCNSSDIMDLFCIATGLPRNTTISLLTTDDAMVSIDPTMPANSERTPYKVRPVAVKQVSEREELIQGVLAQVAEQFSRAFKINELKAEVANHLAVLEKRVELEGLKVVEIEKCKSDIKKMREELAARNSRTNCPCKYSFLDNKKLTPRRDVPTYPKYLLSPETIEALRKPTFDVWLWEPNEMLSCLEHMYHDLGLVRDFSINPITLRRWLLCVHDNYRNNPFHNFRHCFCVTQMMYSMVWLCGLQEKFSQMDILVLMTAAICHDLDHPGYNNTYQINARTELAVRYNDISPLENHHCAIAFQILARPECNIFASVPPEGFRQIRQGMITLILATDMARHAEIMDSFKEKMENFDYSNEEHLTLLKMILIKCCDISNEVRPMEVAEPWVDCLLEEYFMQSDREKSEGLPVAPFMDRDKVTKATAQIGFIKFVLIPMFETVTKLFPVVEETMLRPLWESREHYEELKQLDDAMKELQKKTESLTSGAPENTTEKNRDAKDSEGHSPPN

CC(C)Cn1c(=O)n(C)c(=O)c2[nH]cnc21 [IBMX]
inhibition of murine PDE9A [1]: not inhibited | inhibition on the isolated enzyme [2]: no inhibition

CC(=O)Nc1ccc(-c2c[nH]c(=O)cn2)cc1 [SKF94120]
inhibition on the isolated enzyme [2]: no inhibition

OCCN(CCO)c1nc(N2CCCCC2)c2nc(N(CCO)CCO)nc(N3CCCCC3)c2n1 [dipyridamole]
inhibition on the isolated enzyme [2]: no inhibition

COc1ccc(C2CNC(=O)C2)cc1OC1CCCC1 (stereo not shown) [rolipram]
inhibition on the isolated enzyme [2]: no inhibition

CCOC(=O)C1=C[C@]2(CC)CCCN3CCc4c(n1c1ccccc41)[C@@H]32 [vinpocetine]
inhibition on the isolated enzyme [2]: no inhibition

CCCOc1ccccc1-c1nc2nn[nH]c2c(=O)[nH]1 [zaprinast]
IC50 ([2]; isolated human PDE9A enzyme): 35 micromolar (μM)
